Assay results: patent US9738677B2, “Amphotericin B derivative with reduced toxicity” (priority 2014, dated 2017)
Values belong to the molecule of their own block, whether it stands above or below them.

Tests used:
yeast [1] = details: reported by Carreira and coworkers; cited from earlier work
[2] = Chol-containing POPC liposomes, 1 μM; cited from earlier work
[3] = ITC sterol binding, POPC LUVs containing 10% ergosterol; details: net exotherm vs sterol-free LUVs
Protocol: (§1) Isothermal Titration calorimetry (ITC)
(§2) In an optimized isothermal titration calorimetry (ITC)-based assay, an aqueous solution of AmB was titrated with a suspension of large unilamellar vesicles (LUVs) comprised of only 1-palmitoyl-2-oleoyl-sn-glycero-3-phosphocholine (POPC), and the net exotherm was recorded. The titration was repeated using POPC LUVs containing 10% ergosterol. […] The titration was repeated using C2′epiAmB. […] The ITC assay was also conducted with cholesterol in place of ergosterol.
(§3) Experiments were performed using a NanoITC isothermal titration calorimeter (TA Instruments, Wilmington, Del.). Solutions of the compounds to be tested were prepared by diluting a 60.0 mM stock solution of the compound in DMSO to 600 μM with K buffer (5.0 mM HEPES/KHEPES, pH=7.4). The final DMSO concentration in the solution was 1% v/v. Large unilamellar vesicles comprised of only 1-palmitoyl-2-oleoyl-sn-glycero-3-phosphocholine (POPC LUVs) were prepared and phosphorus and ergosterol content was quantified as described below. The LUV solutions were diluted with buffer and DMSO to give a final phospholipid concentration of 12.0 mM in a 1% DMSO/K buffer solution. Immediately prior to use, all solutions were incubated at 37° C. for 30 minutes and degassed under vacuum at 37° C. for 10 minutes. The reference cell of the instrument (volume=0.190 mL) was filled with a solution of 1% v/v DMSO/K buffer.
(§4) Palmitoyl oleoyl phosphatidylcholine (POPC) was obtained as a 20 mg/mL solution in CHCl3 from Avanti Polar Lipids (Alabaster, Ala.) and was stored at −20° C. under an atmosphere of dry argon and used within 1 month. […]
Ergosterol content was determined spectrophotometrically. […] The solutions were then analyzed by UV/Vis spectroscopy and the concentration of ergosterol in solution was determined by the extinction coefficient of 10400 L mol^−1 cm^−1 at the UVmax of 282 nm and was compared to the concentration of phosphorus to determine the percent sterol content. The extinction coefficient was determined independently in the above ternary solvent system. […]

healthy mice = assay: Acute toxicity, single intravenous administration, lethality; assay type: in vivo, mouse; details: healthy mice, single intravenous 4 mg/kg
Protocol: FIG. 8 is a graph depicting lethality in healthy mice resulting from single intravenous administrations in the doses indicated of AmB or C2′epiAmB.
In a separate experiment, acute toxicity was determined by single intravenous administration of AmB or C2′epiAmB to healthy mice, followed by monitoring for lethality.

[4] = test system: primary human renal proximal tubule epithelial cells; assay: WST-8 cell proliferation assay (MTC); assay type: cell-based
Protocol: WST-8 Cell Proliferation Assays
Primary human renal proximal tubule epithelial cells (RPTECs) were purchased from ATCC (Manassas, Va.) and immediately cultured upon receipt. Complete growth media was prepared using renal epithelial cell basal medium (ATCC, PCS-400-030), renal epithelial cell growth kit (ATCC, PCS-400-040), and penicillin-streptomycin (10 units/mL and 10 μg/mL). Complete media was stored at 4° C. in the dark and used within 28 days. Primary RPTECs were grown in CO2 incubator at 37° C. with an atmosphere of 95% air/5% CO2.
WST-8 cell proliferation assay kit (Ser. No. 10/010,199) was purchased from Cayman Chemical Company (Ann Arbor, Mich.) and stored at −20° C. and used within 6 months of receipt. WST-8 reagent and electron mediator solution were thawed and mixed to prepare the WST-8 reagent solution. The solution was stored at −20° C. and used within one week.
A suspension of primary RPTECs in complete growth media was brought to a concentration of 1×10^5 cells/mL. A 96-well plate was seeded with 99 μL of the cell suspension and incubated at 37° C. with an atmosphere of 95% air/5% CO2 for 3 hours. Positive and negative controls were prepared by seeding with 100 μL of the cell suspension or 100 μL of the complete media. Compounds were prepared as 5 mM (AmB), 20 mM (C2′deOAmB), and 50 mM (C2′epiAmB) stock solutions in DMSO and serially diluted to the following concentrations with DMSO: 50000, 40000, 30000, 20000, 10000, 8000, 6000, 4000, 3000, 2000, 1500, 1000, 800, 600, 400, 300, 200, 100, 50, 25, 10, 5, 2.5, 1, 0.5, 0.25, and 0.1 μM. 1 μL aliquots of each solution were added to the 96-well plate in triplicate, with each column representing a different concentration of the test compound. The 96-well plate was incubated at 37° C. with an atmosphere of 95% air/5% CO2 for 24 hours. […] Following incubation, the 96-well plate was mixed in a shaking incubator at 200 rpm for 1 minute and absorbances were read at 450 nm using a Biotek H1 Synergy Hybrid Reader (Wanooski, Vt.). […]

human red blood cells = assay: Minimum hemolysis concentration (MHC) assay; assay type: cell-based; details: concentration causing 90% hemolysis of human red blood cells, 2 hours, 37° C.
Protocol: The protocol for the hemolysis assay was adapted from the report of Paquet and coworkers. […] Whole human blood (sodium heparin) was purchased from Bioreclamation LLC (Westbury, N.Y.) and stored at 4° C. and used within two days of receipt. To a 2.0 mL Eppendorf tube, 1 mL of whole human blood was added and centrifuged at 10,000 g for 2 minutes. The supernatant was removed and the erythrocyte pellet was washed with 1 mL of sterile saline and centrifuged at 10,000 g for 2 minutes. The saline wash was repeated for a total of three washes. The erythrocyte pellet was suspended in 1 mL of RBC buffer (10 mM NaH2PO4, 150 mM NaCl, 1 mM MgCl2, pH 7.4) to form the erythrocyte stock suspension.
Positive and negative controls were prepared by adding 1 μL of DMSO to MilliQ water or RBC buffer, respectively to 0.2 mL PCR tube. To each PCR tube, 0.63 μL of the erythrocyte stock suspension was added and mixed by inversion. The samples were incubated at 37° C. for 2 hours. The samples were mixed by inversion and centrifuged at 10,000 g for 2 minutes. 15 μL of the supernatant from each sample was added to a 384-well place. Absorbances were read at 540 nm using a Biotek H1 Synergy Hybrid Reader (Wanooski, Vt.). Experiments were performed in triplicate and the reported MHC represents an average of three experiments.
Percent hemolysis was determined according to the following equation:
[formula] […]

renal cells = assay type: cell-based, human
Protocol: Cells were imaged using an AMG (Bothell, Wash.) EVOS fl Microscope. Images were taken using transmitted light at 10× objective.
(18) Due to the limited solubility of AmB and its derivatives in the renal cell media, 80 μM is the highest concentration we were able to study. At higher concentrations, the aggregate blocks the light path of the plate reader, giving false high absorbance readings.

[5] = ITC sterol binding, POPC LUVs containing 10% cholesterol; details: within the limits of the binding assay
Protocol: as §1, §2, §3
as §4, with “month. A 4 mg/mL solution of ergosterol in CHCl3 was prepared monthly and stored at 4° C. under an atmosphere of dry argon.” for “month.”
NanoAnalyze software (TA Instruments) was used for baseline determination and integration of the injection heats, and Microsoft Excel was used for subtraction of dilution heats and the calculation of overall heat evolved. […] By this method, the overall heat evolved during the experiment was calculated using the following formula: […]

yeast [6] = details: previously found; cited from earlier work
[7] = previously found; cited from earlier work
[8] = previously found; cited from earlier work; remark: listed apart in the source

SMILES: COC(=O)[C@H]1[C@@H]2C[C@@H](O[C@@H]3O[C@H](C)[C@@H](O)[C@H](N)[C@H]3O)/C=C/C=C/C=C/C=C/C=C/C=C/C=C/[C@H](C)[C@@H](O)[C@@H](C)[C@H](C)OC(=O)C[C@H](O)C[C@H](O)CC[C@@H](O)[C@H](O)C[C@H](O)C[C@](O)(C[C@@H]1O)O2 [C2′epiAmE, C2′epiAmB methyl ester]
Potency in yeast MIC assays compared to AmB (yeast [1]): equipotent to AmB
Efflux of potassium ions [2]: caused efflux of potassium ions

SMILES: C[C@@H]1[C@H](O)[C@@H](C)/C=C/C=C/C=C/C=C/C=C/C=C/C=C/[C@H](O[C@@H]2O[C@H](C)[C@@H](O)[C@H](N)[C@@H]2O)C[C@@H]2O[C@](O)(C[C@@H](O)C[C@@H](O)[C@H](O)CC[C@@H](O)C[C@@H](O)CC(=O)O[C@H]1C)C[C@H](O)[C@H]2C(=O)O [AmB, amphotericin B]
Binding to ergosterol (in words) [3]: significant increase in net exotherm
Lethality (healthy mice): died within seconds
MTC (minimum toxic concentration) ([4]; concentration causing 90% loss of cell viability, primary human RPTECs, 24 hours): 2.4 µM
MHC (minimum hemolytic concentration) (human red blood cells): 8.5 µM

Binding to cholesterol (in words) [5]: do not bind cholesterol
SMILES: C[C@@H]1[C@H](O)[C@@H](C)/C=C/C=C/C=C/C=C/C=C/C=C/C=C/[C@H](O[C@H]2C[C@@H](N)[C@H](O)[C@@H](C)O2)C[C@@H]2O[C@](O)(C[C@@H](O)C[C@@H](O)[C@H](O)CC[C@@H](O)C[C@@H](O)CC(=O)O[C@H]1C)C[C@H](O)[C@H]2C(=O)O [C2′deOAmB]
Toxicity to primary human renal proximal tubule epithelial cells (in words) ([4]; up to limits of solubility): no evidence of toxicity up to their limits of solubility
Visual evidence of toxicity in microscope images of renal cells (renal cells): no visual evidence of toxicity

SMILES: C[C@@H]1[C@H](O)[C@@H](C)C=CC=CC=CC=CC=CC=CC=C[C@H](O)C[C@@H]2O[C@](O)(C[C@@H](O)C[C@@H](O)[C@H](O)CC[C@@H](O)C[C@@H](O)CC(=O)O[C@H]1C)C[C@H](O)[C@H]2C(=O)O [AmdeB, amphoteronolide B]
Toxicity to yeast (previous work) (yeast [6]): non-toxic to yeast
Capacity to bind cholesterol (previous work) [7]: eliminates its capacity to bind both ergosterol and cholesterol
Visual evidence of toxicity in microscope images of renal cells (renal cells): no visual evidence of toxicity
Capacity to bind ergosterol (previous work) [8]: eliminates its capacity to bind both ergosterol and cholesterol
